Common to all, as to type: biochemical
The target of one experiment is T1, human Lck enzyme (Homo sapiens, UniProt P06239).
T1 construct: purchased Carna Biosciences, Inc. 08-170
Nature of the experiment: Lck enzyme inhibitory activity (time-resolved fluorometry, biotinylated peptide phosphorylation). Particulars: read-out: LCK_IC50. The method in brief: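 Readout pairs a europium cryptate-labelled anti-phosphotyrosine antibody with XL665-streptavidin, measured by time-resolved fluorescence. IC50 derived from percent inhibition against untreated controls.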

For the next experiment, the target named is T2, human Yes1 enzyme (Homo sapiens, UniProt P07947).
T2 construct: made in house
Kind of experiment: Yes1 enzyme inhibitory activity (time-resolved fluorometry, biotinylated peptide phosphorylation). The note with it: read-out: YES_IC50. In short, it runs like this: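 Inhibition was expressed against a compound-free control to give IC50, using TR-FRET read-out (Eu-cryptate anti-pTyr antibody, streptavidin-XL665).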

Another experiment deals with T3, human Src enzyme (Homo sapiens, UniProt P12931).
T3 construct: purchased Carna Biosciences, Inc. 08-173
Kind of experiment: Src enzyme inhibitory activity (time-resolved fluorometry, biotinylated peptide phosphorylation). The note with it: read-out: SRC_IC50. In short, it runs like this: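 Compounds were tested for blocking tyrosine phosphorylation of a biotinylated peptide substrate by recombinant human Src. Phosphorylated product was quantified by time-resolved fluorometry using europium cryptate and XL665 conjugates, and IC50 was calculated against the compound-free control.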

[1] abbreviates: biotinylated peptide phosphorylation.

Where two headings read alike, the source gives them in different places.

T2 sequence (P07947 whole entry): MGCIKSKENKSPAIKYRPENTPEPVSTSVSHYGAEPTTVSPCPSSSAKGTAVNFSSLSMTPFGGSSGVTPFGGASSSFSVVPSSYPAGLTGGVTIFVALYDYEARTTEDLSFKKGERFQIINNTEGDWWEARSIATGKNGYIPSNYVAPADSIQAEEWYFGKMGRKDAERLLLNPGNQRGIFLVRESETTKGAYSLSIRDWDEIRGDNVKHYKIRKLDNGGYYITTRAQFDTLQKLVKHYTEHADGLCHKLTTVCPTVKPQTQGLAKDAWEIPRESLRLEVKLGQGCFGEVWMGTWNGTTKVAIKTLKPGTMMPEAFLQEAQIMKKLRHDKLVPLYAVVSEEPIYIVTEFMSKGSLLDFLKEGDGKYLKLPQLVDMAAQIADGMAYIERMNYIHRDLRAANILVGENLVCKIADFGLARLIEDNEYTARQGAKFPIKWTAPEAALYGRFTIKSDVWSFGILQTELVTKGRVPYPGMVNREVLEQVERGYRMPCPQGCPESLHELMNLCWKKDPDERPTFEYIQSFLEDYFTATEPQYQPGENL
T3 sequence (P12931 whole entry): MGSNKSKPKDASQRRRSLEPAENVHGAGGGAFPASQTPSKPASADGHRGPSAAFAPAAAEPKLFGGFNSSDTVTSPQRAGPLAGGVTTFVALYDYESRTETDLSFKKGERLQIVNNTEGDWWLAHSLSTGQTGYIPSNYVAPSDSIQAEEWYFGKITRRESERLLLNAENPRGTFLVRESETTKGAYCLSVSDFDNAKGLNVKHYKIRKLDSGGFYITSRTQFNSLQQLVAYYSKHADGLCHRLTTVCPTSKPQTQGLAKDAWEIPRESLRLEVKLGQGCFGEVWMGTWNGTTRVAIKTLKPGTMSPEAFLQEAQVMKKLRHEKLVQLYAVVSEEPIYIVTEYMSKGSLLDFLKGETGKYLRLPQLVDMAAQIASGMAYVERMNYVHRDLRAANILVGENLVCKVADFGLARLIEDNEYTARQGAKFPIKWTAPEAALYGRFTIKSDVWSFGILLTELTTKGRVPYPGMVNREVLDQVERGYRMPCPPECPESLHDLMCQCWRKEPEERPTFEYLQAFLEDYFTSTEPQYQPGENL
T1 sequence (P06239 whole entry): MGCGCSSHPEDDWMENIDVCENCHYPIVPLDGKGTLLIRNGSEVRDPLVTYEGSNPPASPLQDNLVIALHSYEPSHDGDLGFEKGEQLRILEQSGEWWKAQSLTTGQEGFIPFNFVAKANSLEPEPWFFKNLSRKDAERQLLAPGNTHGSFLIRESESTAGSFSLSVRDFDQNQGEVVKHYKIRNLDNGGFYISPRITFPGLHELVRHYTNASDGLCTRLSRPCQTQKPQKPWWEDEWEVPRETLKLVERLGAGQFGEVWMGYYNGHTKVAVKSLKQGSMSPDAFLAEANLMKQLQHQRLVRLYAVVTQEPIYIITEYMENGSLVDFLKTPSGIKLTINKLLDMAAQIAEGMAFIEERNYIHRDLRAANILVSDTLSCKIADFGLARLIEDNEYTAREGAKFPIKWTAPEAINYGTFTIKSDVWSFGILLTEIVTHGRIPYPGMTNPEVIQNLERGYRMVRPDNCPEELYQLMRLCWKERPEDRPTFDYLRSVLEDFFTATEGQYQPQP

Regarding `Cc1cc(Oc2ccccc2F)ccc1-n1ncc(C(=O)c2cc3cc(F)c(NC(=O)C(F)(F)F)cc3[nH]2)c1N` [Example 5-1-029, N-[2-[5-amino-1-[4-(2-fluorophenoxy)-2-methylphenyl]pyrazole-4-carbonyl]-5-fluoro-1H-indol-6-yl]-2,2,2-trifluoroacetamide], the figures for the IC50 at human Lck enzyme, on human Yes1 enzyme and on human Src enzyme were 13 nM, 0.73 nM and 17 nM, respectively.
The matching figures for `Cc1cc(Oc2c(F)cccc2F)ncc1-n1ncc(C(=O)c2cc3cc(OCC(F)F)c(NS(=O)(=O)c4ccccc4Cl)cc3[nH]2)c1N` [Example 5-1-328, N-[2-[5-amino-1-[6-(2,6-difluorophenoxy)-4-methylpyridin-3-yl]pyrazole-4-carbonyl]-5-(2,2-difluoroethoxy)-1H-indol-6-yl]-2-chlorobenzenesulfonamide]: 230 nM, 14 nM and 890 nM.
On the same counts, the results for `Cc1cc2cc(C(=O)c3cnn(-c4cnc(Oc5c(F)cccc5F)cc4C)c3N)[nH]c2cc1N1CC(C)(C)NS1(=O)=O` [Example 5-1-313, [5-amino-1-[6-(2,6-difluorophenoxy)-4-methylpyridin-3-yl]pyrazol-4-yl]-[6-(4,4-dimethyl-1,1-dioxo-1,2,5-thiadiazolidin-2-yl)-5-methyl-1H-indol-2-yl]methanone] are 19 nM, 2.8 nM and 73 nM.
Turning to `Cc1cc(Oc2ccccc2F)cc(F)c1-n1ncc(C(=O)c2cc3cc(OC(F)F)c(C4CCN(S(=O)(=O)C5CC5)CC4)cc3[nH]2)c1N` [Example 4-17-007, [5-amino-1-[2-fluoro-4-(2-fluorophenoxy)-6-methylphenyl]pyrazol-4-yl]-[6-(1-cyclopropylsulfonylpiperidin-4-yl)-5-(difluoromethoxy)-1H-indol-2-yl]methanone], the IC50 on human Lck enzyme (setting [1]) stood at 12 nM; at human Yes1 enzyme (setting [1]), 3.9 nM; on human Src enzyme (setting [1]), 22 nM.
Turning to `Cc1ccccc1-c1cc2[nH]c(C(=O)c3cnn(-c4cnc(Oc5c(F)cccc5F)cc4C)c3N)cc2cc1OC1CCN(C2CCCC2)CC1` [Example 5-1-337, [5-amino-1-[6-(2,6-difluorophenoxy)-4-methylpyridin-3-yl]pyrazol-4-yl]-[5-(1-cyclopentylpiperidin-4-yl)oxy-6-(2-methylphenyl)-1H-indol-2-yl]methanone], the IC50 on human Lck enzyme is 18 nM; at human Yes1 enzyme, 2.3 nM; on human Src enzyme, 120 nM.
Regarding `Cc1cc(Oc2ccccc2F)ccc1-n1ncc(C(=O)c2cc3cc(F)c(NS(=O)(=O)NC4CCC4)cc3[nH]2)c1N` [Example 4-5-006, [5-amino-1-[4-(2-fluorophenoxy)-2-methylphenyl]pyrazol-4-yl]-[6-(cyclobutylsulfamoylamino)-5-fluoro-1H-indol-2-yl]methanone], the IC50 was found to be 62 nM on human Lck enzyme (setting [1]), 6.8 nM on human Yes1 enzyme (setting [1]) and 140 nM at human Src enzyme (setting [1]).
As to `Cc1cc(Oc2c(F)cccc2F)ncc1-n1ncc(C(=O)c2cc3cc(OC4CCN(C5CS(=O)(=O)C5)CC4)c(-c4ccccc4Cl)cc3[nH]2)c1N` [Example 5-1-290, [5-amino-1-[6-(2,6-difluorophenoxy)-4-methylpyridin-3-yl]pyrazol-4-yl]-[6-(2-chlorophenyl)-5-[1-(1,1-dioxothietan-3-yl)piperidin-4-yl]oxy-1H-indol-2-yl]methanone], the IC50 at human Lck enzyme came to 30 nM; at human Yes1 enzyme, 2.1 nM; at human Src enzyme it was 46 nM.
`COc1ccc(Cl)c(S(=O)(=O)Nc2cc3[nH]c(C(=O)c4cnn(-c5cnc(Oc6c(F)cccc6F)cc5C)c4N)cc3cc2OCC(F)F)c1` [Example 5-1-301, N-[2-[5-amino-1-[6-(2,6-difluorophenoxy)-4-methylpyridin-3-yl]pyrazole-4-carbonyl]-5-(2,2-difluoroethoxy)-1H-indol-6-yl]-2-chloro-5-methoxybenzenesulfonamide]: the IC50 is 170 nM on human Lck enzyme, 6.5 nM at human Yes1 enzyme and 610 nM on human Src enzyme.
In the case of `CC(C)N1CCC(c2cc3cc(C(=O)c4cnn(-c5ccc(Oc6ccccc6Cl)cc5F)c4N)[nH]c3cc2F)CC1` [Example 4-2-008, [5-amino-1-[4-(2-chlorophenoxy)-2-fluorophenyl]pyrazol-4-yl]-[6-fluoro-5-(1-propan-2-ylpiperidin-4-yl)-1H-indol-2-yl]methanone], the IC50 on human Lck enzyme (setting [1]) was 2.5 nM; at human Yes1 enzyme (setting [1]) it was 1.1 nM; on human Src enzyme (setting [1]), 5.4 nM.
In the case of `Cc1cc(Oc2c(F)cccc2F)ncc1-n1ncc(C(=O)c2cc3cc(SC(F)F)c(NS(=O)(=O)C4CCOCC4)cc3[nH]2)c1N` [Example 5-1-346, N-[2-[5-amino-1-[6-(2,6-difluorophenoxy)-4-methylpyridin-3-yl]pyrazole-4-carbonyl]-5-(difluoromethylsulfanyl)-1H-indol-6-yl]oxane-4-sulfonamide], the IC50 turned out to be 120 nM on human Lck enzyme, 8.8 nM on human Yes1 enzyme and 510 nM at human Src enzyme.
Regarding `Cc1cc(Oc2ccccc2F)cc(F)c1-n1ncc(C(=O)c2cc3cc(F)c(NS(=O)(=O)C4CC4)cc3[nH]2)c1N` [Example 4-7-004, N-[2-[5-amino-1-[2-fluoro-4-(2-fluorophenoxy)-6-methylphenyl]pyrazole-4-carbonyl]-5-fluoro-1H-indol-6-yl]cyclopropanesulfonamide], the IC50 on human Lck enzyme (setting [1]) came to 40 nM; on human Yes1 enzyme (setting [1]), 4.8 nM; on human Src enzyme (setting [1]), 220 nM.
For `Cc1cc(-n2ncc(C(=O)c3cc4cc(OC5CCN(CCO)CC5)c(Br)cc4[nH]3)c2N)ccc1Oc1ccccc1F` [Example 5-1-225, [5-amino-1-[4-(2-fluorophenoxy)-3-methylphenyl]pyrazol-4-yl]-[6-bromo-5-[1-(2-hydroxyethyl)piperidin-4-yl]oxy-1H-indol-2-yl]methanone], the IC50 was determined as 12 nM on human Lck enzyme, 0.46 nM on human Yes1 enzyme and 89 nM on human Src enzyme.
Regarding `Cc1cc(Oc2c(F)cccc2F)ncc1-n1ncc(C(=O)c2cc3cc(F)c(NS(=O)(=O)c4cccc(F)n4)cc3[nH]2)c1N` [Example 5-1-518, N-[2-[5-amino-1-[6-(2,6-difluorophenoxy)-4-methylpyridin-3-yl]pyrazole-4-carbonyl]-5-fluoro-1H-indol-6-yl]-6-fluoropyridine-2-sulfonamide], the IC50 at human Lck enzyme (setting [1]) amounted to 82 nM; at human Yes1 enzyme (setting [1]), 5.8 nM; on human Src enzyme (setting [1]), 570 nM.
The matching figures for `Cc1ccccc1Oc1cc(C)c(-n2ncc(C(=O)c3cc4cc(F)c(NS(=O)(=O)CCCF)cc4[nH]3)c2N)cn1` [Example 4-2-025, N-[2-[5-amino-1-[4-methyl-6-(2-methylphenoxy)pyridin-3-yl]pyrazole-4-carbonyl]-5-fluoro-1H-indol-6-yl]-3-fluoropropane-1-sulfonamide]: 35 nM, 2.4 nM and 52 nM.
Consider `Cc1cc2cc(C(=O)c3cnn(-c4cnc(Oc5cc(F)ccc5F)cc4C)c3N)[nH]c2cc1NS(C)(=O)=O` [Example 5-1-081, N-[2-[5-amino-1-[6-(2,5-difluorophenoxy)-4-methylpyridin-3-yl]pyrazole-4-carbonyl]-5-methyl-1H-indol-6-yl]methanesulfonamide], for which the IC50 worked out at 6.4 nM at human Lck enzyme, 2.4 nM on human Yes1 enzyme and 110 nM at human Src enzyme.
As to `Cc1cc(Oc2cccc(F)c2F)cc(F)c1-n1ncc(C(=O)c2cc3cc(F)c(NS(C)(=O)=O)cc3[nH]2)c1N` [Example 4-7-005, N-[2-[5-amino-1-[4-(2,3-difluorophenoxy)-2-fluoro-6-methylphenyl]pyrazole-4-carbonyl]-5-fluoro-1H-indol-6-yl]methanesulfonamide], the IC50 at human Lck enzyme (setting [1]) was found to be 45 nM; at human Yes1 enzyme (setting [1]), 2.8 nM; on human Src enzyme (setting [1]) it was 160 nM.
The matching figures for `Cc1cc2cc(C(=O)c3cnn(-c4cnc(Oc5c(F)cccc5F)cc4C)c3N)[nH]c2cc1N1C(=O)N[C@@H](CO)C1=O` [Example 5-1-451, (5S)-3-[2-[5-amino-1-[6-(2,6-difluorophenoxy)-4-methylpyridin-3-yl]pyrazole-4-carbonyl]-5-methyl-1H-indol-6-yl]-5-(hydroxymethyl) imidazolidine-2,4-dione]: 4.6 nM, 0.89 nM and 41 nM.
In the case of `Cc1cc(Oc2c(F)cccc2F)ncc1-n1ncc(C(=O)c2cc3cc(OC4CCN(C(C)C)CC4)c(Br)cc3[nH]2)c1N` [Example 5-1-134, [5-amino-1-[6-(2,6-difluorophenoxy)-4-methylpyridin-3-yl]pyrazol-4-yl]-[6-bromo-5-(1-propan-2-ylpiperidin-4-yl)oxy-1H-indol-2-yl] methanone], the IC50 on human Lck enzyme amounted to 2.1 nM; on human Yes1 enzyme, 0.37 nM; at human Src enzyme, 4.6 nM.
For the compound `Cc1cc(Oc2c(F)cccc2F)ncc1-n1ncc(C(=O)c2cc3cc(F)c(N4C(=O)[C@@H]5C[C@@H](O)CN5C4=O)cc3[nH]2)c1N` [Example 5-1-433, (6R,7aS)-2-[2-[5-amino-1-[6-(2,6-difluorophenoxy)-4-methylpyridin-3-yl]pyrazole-4-carbonyl]-5-fluoro-1H-indol-6-yl]-6-hydroxy-5,6,7,7a-tetrahydropyrrolo[1,2-c]imidazole-1,3-dione], the figures for the IC50 at human Lck enzyme (setting [1]), on human Yes1 enzyme (setting [1]) and on human Src enzyme (setting [1]) were 4.8 nM, 1.2 nM and 59 nM, respectively.
On the same counts, the results for `Cc1cc2cc(C(=O)c3cnn(-c4cnc(Oc5ccccc5F)cc4C)c3N)[nH]c2cc1NS(=O)(=O)c1ccccn1` [Example 5-1-477, N-[2-[5-amino-1-[6-(2-fluorophenoxy)-4-methylpyridin-3-yl]pyrazole-4-carbonyl]-5-methyl-1H-indol-6-yl]pyridine-2-sulfonamide] are 48 nM, 5.2 nM and 250 nM.
